Results published in patent US7951812B2, “Substituted pyrrolo[2,3-d]pyrimidines as antifolates” (Chelsea Therapeutics, Inc., priority 2007, dated 2011).
Structures can show the parent of a compound that is named as a salt.

Assays:
Type in all cases: biochemical
[1] = biological target: T1, DHFR in CCRF-CEM human leukemia cells (Homo sapiens, UniProt P00374); experiment: DHFR enzyme inhibition assay; details: DHFR from CCRF-CEM cells, pre-incubation with NADPH 3 minutes at 37° C.
T1 construct: endogenous in cells; host or cells: CCRF-CEM
T1 sequence (P00374 1-187): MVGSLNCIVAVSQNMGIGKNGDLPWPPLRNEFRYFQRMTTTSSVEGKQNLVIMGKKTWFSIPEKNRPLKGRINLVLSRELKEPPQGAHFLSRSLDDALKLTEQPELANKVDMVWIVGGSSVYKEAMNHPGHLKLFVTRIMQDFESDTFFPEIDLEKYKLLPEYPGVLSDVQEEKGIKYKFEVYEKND

[2] = biological target: T2, TS in CCRF-CEM human T-lymphoblastic leukemia cells (Homo sapiens, UniProt P04818); experiment: TS enzyme inhibition assay; details: TS from CCRF-CEM cells, up to five graded concentrations; read-out: IC50 against TS
T2 construct: endogenous in cells; host or cells: CCRF-CEM
Protocol: The inhibitory potency against TS in CCRF-CEM human T-lymphoblastic leukemia cells was assessed by introducing up to five graded concentrations of compounds into the reaction mixture, initiating the reaction by addition of TS, and quantitating remaining TS activity.

AICART = AICART (Homo sapiens, UniProt P31939); experiment: AICART inhibition (similar tests); details: read-out: IC50 against AICART
From the text: (§1) The above data illustrates the selectivity of the novel antifolates in enzyme inhibition. […] As previously noted, such selectivity in activity can be useful for improving activity against specific conditions while avoiding undesirable side effects.

GARFT = biological target: T3, GARFT (Homo sapiens, UniProt P22102); experiment: GARFT inhibition (similar tests); details: read-out: IC50 against GARFT
T3 sequence (P22102 1-1010): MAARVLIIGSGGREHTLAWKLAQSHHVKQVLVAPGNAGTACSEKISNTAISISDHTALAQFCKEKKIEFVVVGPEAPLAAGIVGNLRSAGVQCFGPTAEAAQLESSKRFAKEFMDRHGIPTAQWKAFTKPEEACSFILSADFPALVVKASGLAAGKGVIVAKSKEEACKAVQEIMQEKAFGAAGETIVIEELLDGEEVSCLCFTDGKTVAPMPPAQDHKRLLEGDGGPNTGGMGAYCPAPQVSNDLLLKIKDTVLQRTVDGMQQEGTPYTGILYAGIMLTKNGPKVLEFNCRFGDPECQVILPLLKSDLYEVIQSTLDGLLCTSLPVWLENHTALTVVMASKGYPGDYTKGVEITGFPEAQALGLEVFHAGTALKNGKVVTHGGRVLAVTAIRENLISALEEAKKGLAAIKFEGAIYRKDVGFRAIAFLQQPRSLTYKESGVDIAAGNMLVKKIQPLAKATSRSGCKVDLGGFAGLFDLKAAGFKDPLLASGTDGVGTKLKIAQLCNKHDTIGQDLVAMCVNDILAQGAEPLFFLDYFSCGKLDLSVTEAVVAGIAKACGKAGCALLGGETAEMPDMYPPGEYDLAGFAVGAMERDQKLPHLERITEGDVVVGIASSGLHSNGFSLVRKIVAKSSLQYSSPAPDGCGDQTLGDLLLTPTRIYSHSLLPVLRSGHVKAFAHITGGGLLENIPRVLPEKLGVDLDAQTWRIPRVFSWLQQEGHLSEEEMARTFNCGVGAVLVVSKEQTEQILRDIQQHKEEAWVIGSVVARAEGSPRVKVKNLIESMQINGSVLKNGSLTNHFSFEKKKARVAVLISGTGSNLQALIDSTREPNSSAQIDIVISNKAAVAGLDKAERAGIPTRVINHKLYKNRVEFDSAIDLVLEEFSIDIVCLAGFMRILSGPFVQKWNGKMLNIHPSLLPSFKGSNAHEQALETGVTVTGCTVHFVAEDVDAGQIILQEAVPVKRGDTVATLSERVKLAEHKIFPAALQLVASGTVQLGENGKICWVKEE
From the text: as §1

T2 sequence (P04818 whole entry): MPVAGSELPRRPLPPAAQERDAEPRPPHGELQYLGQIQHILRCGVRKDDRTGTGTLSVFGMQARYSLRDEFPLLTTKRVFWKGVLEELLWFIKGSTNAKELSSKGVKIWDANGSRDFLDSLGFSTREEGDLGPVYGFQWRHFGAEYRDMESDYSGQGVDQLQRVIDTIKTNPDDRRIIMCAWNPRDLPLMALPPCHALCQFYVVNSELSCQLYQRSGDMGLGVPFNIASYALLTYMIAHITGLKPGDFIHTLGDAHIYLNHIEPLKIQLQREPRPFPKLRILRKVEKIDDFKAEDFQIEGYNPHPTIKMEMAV
Sequence of AICART (P31939 whole entry): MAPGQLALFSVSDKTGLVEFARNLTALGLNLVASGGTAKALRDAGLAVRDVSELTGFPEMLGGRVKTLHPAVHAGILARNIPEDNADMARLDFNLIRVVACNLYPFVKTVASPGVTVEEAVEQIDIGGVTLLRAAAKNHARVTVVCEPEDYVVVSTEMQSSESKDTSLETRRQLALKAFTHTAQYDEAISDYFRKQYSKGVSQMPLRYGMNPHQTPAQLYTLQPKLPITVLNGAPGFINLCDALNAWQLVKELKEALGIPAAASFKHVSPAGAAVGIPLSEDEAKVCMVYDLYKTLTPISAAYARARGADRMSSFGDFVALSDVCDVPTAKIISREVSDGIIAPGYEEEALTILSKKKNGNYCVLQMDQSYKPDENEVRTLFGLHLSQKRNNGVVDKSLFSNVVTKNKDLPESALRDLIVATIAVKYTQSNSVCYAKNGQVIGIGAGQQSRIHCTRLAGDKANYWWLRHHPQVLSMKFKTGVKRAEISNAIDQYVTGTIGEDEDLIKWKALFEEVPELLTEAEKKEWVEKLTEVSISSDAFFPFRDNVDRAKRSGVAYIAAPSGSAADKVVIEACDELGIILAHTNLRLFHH

| IC50 [1] [nM] | IC50 [2] [nM] | IC50 (AICART) [nM] | IC50 (GARFT) [nM] | SMILES |
| --- | --- | --- | --- | --- |
| 12.5 | > 50000 | > 50000 | > 50000 | C=C(CC(NC(=O)c1ccc(CCc2c[nH]c3nc(N)nc(N)c23)cc1)C(=O)O)C(=O)O (racemic) [CHL-003, N-{4-[2-(2,4-diamino-7H-pyrrolo[2,3-d]pyrimidin-5-yl)ethyl]benzoyl}-4-methylene-glutamic acid] |
| 5.2 | – | – | – | C=C(C[C@H](NC(=O)c1ccc(CCc2c[nH]c3nc(N)nc(N)c23)cc1)C(=O)O)C(=O)O [CHL1007, (S)-N-{4-[2-(2,4-diamino-7H-pyrrolo[2,3-d]pyrimidin-5-yl)ethyl]benzoyl}-4-methylene-L-glutamic acid disodium salt] |
| 1.1 | 8000 | – | – | C=C(CC(NC(=O)c1ccc(CCc2ccc3nc(N)nc(N)c3c2)cc1)C(=O)O)C(=O)O (stereo not shown) [Mobiltrex, 2-{4-[2-(2,4-diamino-quinazolin-6-yl)-ethyl] -benzoylamino}-4-methylidene-pentanedioic acid, reference compound] |
